From the supplement of paper PMC10883282

Assays:
Experiment in all cases: relative viability vs DMSO control (72 h) (fraction); higher = more viable cells
VA-ES-BJ = tested on: VA-ES-BJ
Summary of the method: (§1)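 Sarcoma cell lines were plated in 384 wells to reach 80–90% confluence, treated after 24 h with 2.5 µl of serially diluted compound and held 72 h at 37 °C, 5% CO2. Relative viability was taken as percent growth from ATPLite readings, averaged over up to triplicate wells. The values were rescaled so that 1 marks full and 0 marks none.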

HT1080 = tested on: HT1080
Summary of the method: as §1

KHOS-NP = tested on: KHOS-NP
Summary of the method: as §1

RD-ES = tested on: RD-ES
Summary of the method: as §1

RD = tested on: RD
Summary of the method: as §1

Cc1[nH]c(/C=C2\C(=O)Nc3ccccc32)c(C)c1CCC(=O)O [Orantinib]
relative viability
Conditions	HT1080	KHOS-NP	RD	RD-ES	VA-ES-BJ
0.00017 µM	1.09	1.088	1.05	1.02	1.11
0.00051 µM	1.1	1.122	1.08	0.9951	1.1
0.00152 µM	1.13	1.12	1.1	1.01	1.116
0.00457 µM	1.11	1.12	1.12	1.03	1.096
0.01372 µM	1.08	1.11	1.11	1.03	1.06
0.04115 µM	1.07	1.11	1.09	1.02	1.053
0.1235 µM	1.11	1.11	1.12	1.01	1.1
0.3704 µM	1.09	1.1	1.11	1	1.07
1.111 µM	1.05	1.09	1.11	0.977	1.028
3.333 µM	0.991	1.1	1.07	0.983	1.05
10 µM	0.947	1.08	1.06	0.932	0.998

CC(=O)c1c(C)c2cnc(Nc3ccc(N4CCNCC4)cn3)nc2n(C2CCCC2)c1=O [Palbociclib]
relative viability
Conditions	HT1080	KHOS-NP	RD	RD-ES	VA-ES-BJ
0.00017 µM	1.09	1.12	1.03	0.959	1.1
0.00051 µM	1.1	1.11	1.08	0.9884	1.1
0.00152 µM	1.11	1.124	1.11	0.98	1.081
0.00457 µM	1.08	1.1	1.09	0.931	1.08
0.01372 µM	1.13	1.13	1.08	0.917	0.99
0.04115 µM	1.12	1.12	1.09	0.835	0.9367
0.1235 µM	1.16	1.11	1.05	0.735	0.807
0.3704 µM	1.16	1.1	1.01	0.652	0.666
1.111 µM	1.06	1.07	0.968	0.603	0.584
3.333 µM	0.973	0.902	0.905	0.563	0.547
10 µM	0.44	0.742	0.276	0.18	0.499

CN(C)C(=O)c1cc2cnc(Nc3ccc(N4CCNCC4)cn3)nc2n1C1CCCC1 [Ribociclib]
relative viability
Conditions	HT1080	KHOS-NP	RD	RD-ES	VA-ES-BJ
0.00017 µM	1.08	1.08	1.13	0.9605	1.03
0.00051 µM	1.11	1.07	1.06	0.9809	1.04
0.00152 µM	1.08	1.06	1.08	0.959	1.01
0.00457 µM	1.08	1.07	1.12	0.985	0.995
0.01372 µM	1.05	1.06	1.09	0.926	0.988
0.04115 µM	1.08	1.07	1.05	0.9	0.985
0.1235 µM	1.1	1.07	1.04	0.845	0.931
0.3704 µM	1.09	1.08	1.06	0.773	0.869
1.111 µM	1.12	1.08	0.995	0.735	0.872
3.333 µM	1.09	1.08	0.915	0.602	0.712
10 µM	0.978	1.03	0.87	0.546	0.597

O=C(/C=C\n1cnc(-c2cc(C(F)(F)F)cc(C(F)(F)F)c2)n1)NNc1cnccn1 [Selinexor]
relative viability
Conditions	HT1080	KHOS-NP	RD	RD-ES	VA-ES-BJ
0.00017 µM	1.11	1.09	1.052	0.988	1.1
0.00051 µM	1.14	1.12	1.08	1.02	1.09
0.00152 µM	1.13	1.131	1.09	0.993	1.08
0.00457 µM	1.11	1.13	1.07	0.972	1.03
0.01372 µM	1.082	1.12	1.01	0.949	0.953
0.04115 µM	1.088	1.05	0.943	0.825	0.78
0.1235 µM	0.814	0.727	0.754	0.705	0.565
0.3704 µM	0.375	0.238	0.51007	0.602	0.318
1.111 µM	0.3301	0.184	0.404	0.5	0.198
3.333 µM	0.2689	0.0993	0.304	0.3989	0.187
10 µM	0.2291	0.0794	0.252	0.334	0.165

Cc1cc(F)c(C(=O)Nc2cccc(-c3nncn3C(C)C)n2)cc1-n1cnc(C2CC2)c1 [Selonsertib]
relative viability
Conditions	HT1080	KHOS-NP	RD	RD-ES	VA-ES-BJ
0.00017 µM	1.01	1.04	1.11	0.972	0.995
0.00051 µM	1.04	1.05	1.11	0.988	0.995
0.00152 µM	1.04	1.042	1.09	0.955	1.01
0.00457 µM	1.04	1.06	1.1	0.983	0.972
0.01372 µM	1.05	1.06	1.11	0.999	0.989
0.04115 µM	1.04	1.07	1.1	1.02	0.977
0.1235 µM	1.04	1.07	1.09	0.983	0.967
0.3704 µM	1.03	0.911	1.11	1.01	0.969
1.111 µM	1.08	1.06	1.12	0.994	0.938
3.333 µM	1.09	1.02	1.11	0.975	0.918
10 µM	1.081	0.707	1.11	0.537	0.848

Cn1cnc2c(F)c(Nc3ccc(Br)cc3Cl)c(C(=O)NOCCO)cc21 [Selumetinib]
relative viability
Conditions	HT1080	KHOS-NP	RD	RD-ES	VA-ES-BJ
0.00017 µM	0.96	1.06	1.06	0.958	0.9961
0.00051 µM	0.97	1.03	1.04	0.942	0.992
0.00152 µM	0.974	1.04	1.04	0.95	0.985
0.00457 µM	0.9799	1.04	0.977	0.985	0.964
0.01372 µM	0.927	1.01	0.931	0.973	0.947
0.04115 µM	0.855	0.965	0.875	0.965	0.877
0.1235 µM	0.805	0.823	0.749	0.927	0.8465
0.3704 µM	0.6793	0.727	0.703	0.942	0.836
1.111 µM	0.602	0.526	0.632	0.935	0.808
3.333 µM	0.491	0.351	0.593	0.933	0.78
10 µM	0.462	0.277	0.543	0.855	0.742

CO[C@H]1C[C@@H]2CC[C@@H](C)[C@@](O)(O2)C(=O)C(=O)N2CCCC[C@H]2C(=O)O[C@H]([C@H](C)C[C@@H]2CC[C@@H](OC(=O)C(C)(CO)CO)[C@H](OC)C2)CC(=O)[C@H](C)/C=C(\C)[C@@H](O)[C@@H](OC)C(=O)[C@H](C)C[C@H](C)/C=C/C=C/C=C/1C [Temsirolimus]
relative viability
Conditions	HT1080	KHOS-NP	RD	RD-ES	VA-ES-BJ
0.00017 µM	1.02	1.05	1.09	0.908	0.864
0.00051 µM	1.01	1.05	1.01	0.865	0.723
0.00152 µM	1.05	1.03	0.91	0.771	0.577
0.00457 µM	1.01	1.044	0.84	0.745	0.547
0.01372 µM	0.95	1.05	0.792	0.687	0.487
0.04115 µM	0.918	1.036	0.755	0.656	0.448
0.1235 µM	0.936	1.04	0.735	0.625	0.415
0.3704 µM	0.929	1	0.681	0.568	0.42
1.111 µM	0.908	0.96	0.667	0.526	0.419
3.333 µM	0.8	0.907	0.578	0.435	0.415
10 µM	0.0491	0.0158	0.441	0.107	0.377
